{"source": "patent US20220089592A1", "about": "“IMIDAZO[1,2-A]PYRIDINYL DERIVATIVES AS IRAK4 INHIBITORS” (priority 2019, published 2022)", "key": {"[1]": {"target": "T1, IRAK4 (Homo sapiens, UniProt Q9NWZ3)", "T1 sequence (Q9NWZ3 1-460)": "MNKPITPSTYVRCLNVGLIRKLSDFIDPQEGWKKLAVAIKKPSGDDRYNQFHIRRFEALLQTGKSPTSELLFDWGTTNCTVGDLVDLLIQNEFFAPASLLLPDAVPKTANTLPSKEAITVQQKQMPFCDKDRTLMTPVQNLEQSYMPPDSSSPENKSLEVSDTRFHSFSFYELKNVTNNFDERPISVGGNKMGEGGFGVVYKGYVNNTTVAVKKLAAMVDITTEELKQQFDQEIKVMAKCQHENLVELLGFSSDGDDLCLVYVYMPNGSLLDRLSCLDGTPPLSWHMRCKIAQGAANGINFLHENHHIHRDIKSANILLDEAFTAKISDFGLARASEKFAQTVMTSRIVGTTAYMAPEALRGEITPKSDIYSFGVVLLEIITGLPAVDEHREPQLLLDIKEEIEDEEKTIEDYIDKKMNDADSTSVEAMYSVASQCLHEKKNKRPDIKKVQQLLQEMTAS", "assay": "2-hour 1 mM ATP IRAK4 Biochemical assay (as above, but with 100 pM IRAK4 and 1 mM ATP)", "details": "IRAK4 MSD BIOCHEMICAL (1 mM ATP) IC50 (μM), 100 pM IRAK4, 2 hours", "how_it_was_run": "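Run with 100 pM IRAK4 and 1 mM ATP for 2 hours, quenched with EDTA pH 8. Phosphorylated biotinylated peptide captured on streptavidin MSD plates and detected with anti-phosphothreonine antibody plus Sulfo-Tag secondary by electrochemiluminescence.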"}, "[2]": {"target": "T1, IRAK4", "assay": "2-hour 10 μM ATP Biochemical Assay (MesoScale Detection format; IRAK4 phosphorylation of biotin labeled IRAK1 activation loop peptide)", "details": "IRAK4 MSD BIOCHEMICAL (10 μM ATP) IC50 (μM), 1 nM IRAK4, 2 hours", "how_it_was_run": "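Kinase reaction run 2 h at 10 μM ATP with biotinylated IRAK1 activation-loop peptide, quenched with EDTA. Phospho-peptide captured on streptavidin MSD plates and detected with anti-phosphothreonine rabbit antibody plus Sulfo-Tag anti-rabbit electrochemiluminescence.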"}}}
{"smiles": "CCOc1cc2nc(CCC(F)F)cn2cc1NC(=O)c1cccc(C(F)F)n1", "note": "[Example 110, 6-(difluoromethyl)-N-(2-(3,3-difluoropropyl)-7-ethoxyimidazo[1,2-a]pyridin-6-yl)picolinamide]", "values": [{"measurement": "IC50", "setting": "[1]", "value": 0.001, "unit": "µM"}, {"measurement": "IC50", "setting": "[2]", "value": 0.001, "unit": "µM"}]}
{"smiles": "CCOc1cc2nc(C3(F)CC3)cn2cc1NC(=O)c1cccc(C(F)F)n1", "note": "[Example 111, 6-(difluoromethyl)-N-(7-ethoxy-2-(1-fluorocyclopropyl)imidazo[1,2-a]pyridin-6-yl)picolinamide]", "values": [{"measurement": "IC50", "setting": "[1]", "value": 0.003, "unit": "µM"}, {"measurement": "IC50", "setting": "[2]", "value": 0.002, "unit": "µM"}]}
{"smiles": "CCOc1cc2nc(C3CCCOC3)cn2cc1NC(=O)c1cccc(C(F)(F)F)n1", "note": "(centres unmarked) [Example 112, N-(7-ethoxy-2-(tetrahydro-2H-pyran-3-yl)imidazo[1,2-a]pyridin-6-yl)-6-(trifluoromethyl)picolinamide]", "values": [{"measurement": "IC50", "setting": "[1]", "value": 0.001, "unit": "µM"}, {"measurement": "IC50", "setting": "[2]", "value": 0.001, "unit": "µM"}]}
{"smiles": "CCOc1cc2nc([C@H]3C[C@@H](OC)C3)cn2cc1NC(=O)c1cccc(C(F)F)n1", "note": "[Example 115, 6-(difluoromethyl)-N-(7-ethoxy-2-((1s,3s)-3-methoxycyclobutyl)imidazo[1,2-a]pyridin-6-yl)picolinamide]", "values": [{"measurement": "IC50", "setting": "[1]", "value": 0.002, "unit": "µM"}, {"measurement": "IC50", "setting": "[2]", "value": 0.001, "unit": "µM"}]}
{"smiles": "CCOc1cc2nc(C3CCOCC3)cn2cc1NC(=O)c1cccc(C(F)F)n1", "note": "[Example 116, 6-(difluoromethyl)-N-(7-ethoxy-2-(tetrahydro-2H-pyran-4-yl)imidazo[1,2-a]pyridin-6-yl)picolinamide]", "values": [{"measurement": "IC50", "setting": "[1]", "value": 0.001, "unit": "µM"}, {"measurement": "IC50", "setting": "[2]", "value": 0.001, "unit": "µM"}]}
{"smiles": "CCOc1cc2nc(C3CC3)cn2cc1NC(=O)c1cccc(OC)n1", "note": "[Example 117, N-(2-cyclopropyl-7-ethoxyimidazo[1,2-a]pyridin-6-yl)-6-methoxypicolinamide]", "values": [{"measurement": "IC50", "setting": "[1]", "value": 0.063, "unit": "µM"}, {"measurement": "IC50", "setting": "[2]", "value": 0.027, "unit": "µM"}]}
{"smiles": "CCOc1cc2nc(C3CC3)cn2cc1NC(=O)c1cccc2c1OCC2", "note": "[Example 119, N-(2-cyclopropyl-7-ethoxyimidazo[1,2-a]pyridin-6-yl)-2,3-dihydrobenzofuran-7-carboxamide]", "values": [{"measurement": "IC50", "setting": "[1]", "value": 0.021, "unit": "µM"}, {"measurement": "IC50", "setting": "[2]", "value": 0.009, "unit": "µM"}]}
{"smiles": "CCOc1cc2nc(CC3CCOC3)cn2cc1NC(=O)c1ccn(C(C)C)n1", "note": "(centres unmarked) [Example 122, N-(7-ethoxy-2-((tetrahydrofuran-3-yl)methyl)imidazo[1,2-a]pyridin-6-yl)-1-isopropyl-1H-pyrazole-3-carboxamide]", "values": [{"measurement": "IC50", "setting": "[1]", "value": 0.003, "unit": "µM"}, {"measurement": "IC50", "setting": "[2]", "value": 0.008, "unit": "µM"}]}
{"smiles": "CCOc1cc2nc(CC3CCOC3)cn2cc1NC(=O)c1ccn(CC(F)(F)F)n1", "note": "(centres unmarked) [Example 123, N-(7-ethoxy-2-((tetrahydrofuran-3-yl)methyl)imidazo[1,2-a]pyridin-6-yl)-1-(2,2,2-trifluoroethyl)-1H-pyrazole-3-carboxamide]", "values": [{"measurement": "IC50", "setting": "[1]", "value": 0.014, "unit": "µM"}, {"measurement": "IC50", "setting": "[2]", "value": 0.008, "unit": "µM"}]}
{"smiles": "CCOc1cc2nc(CC3CCOC3)cn2cc1NC(=O)c1ccn(C(F)F)n1", "note": "(centres unmarked) [Example 124, 1-(difluoromethyl)-N-(7-ethoxy-2-((tetrahydrofuran-3-yl)methyl)imidazo[1,2-a]pyridin-6-yl)-1H-pyrazole-3-carboxamide]", "values": [{"measurement": "IC50", "setting": "[1]", "value": 0.002, "unit": "µM"}, {"measurement": "IC50", "setting": "[2]", "value": 0.002, "unit": "µM"}]}
{"smiles": "CCOc1cc2nc(CC3CCOC3)cn2cc1NC(=O)c1ccn(CC(F)F)n1", "note": "(centres unmarked) [Example 125, 1-(2,2-difluoroethyl)-N-(7-ethoxy-2-((tetrahydrofuran-3-yl)methyl)imidazo[1,2-a]pyridin-6-yl)-1H-pyrazole-3-carboxamide]", "values": [{"measurement": "IC50", "setting": "[1]", "value": 0.01, "unit": "µM"}, {"measurement": "IC50", "setting": "[2]", "value": 0.004, "unit": "µM"}]}
{"smiles": "CCOc1cc2nc(C34CC(F)(C3)C4)cn2cc1NC(=O)c1cccc(C(F)F)n1", "note": "[Example 127, 6-(difluoromethyl)-N-(7-ethoxy-2-(3-fluorobicyclo[1.1.1]pentan-1-yl)imidazo[1,2-a]pyridin-6-yl)picolinamide]", "values": [{"measurement": "IC50", "setting": "[1]", "value": 0.003, "unit": "µM"}, {"measurement": "IC50", "setting": "[2]", "value": 0.001, "unit": "µM"}]}
{"smiles": "CCOc1cc2nc(C3(OC)CC3)cn2cc1NC(=O)c1cccc(C(F)F)n1", "note": "[Example 128, 6-(difluoromethyl)-N-(7-ethoxy-2-(1-methoxycyclopropyl)imidazo[1,2-a]pyridin-6-yl)picolinamide]", "values": [{"measurement": "IC50", "setting": "[1]", "value": 0.007, "unit": "µM"}, {"measurement": "IC50", "setting": "[2]", "value": 0.002, "unit": "µM"}]}
{"smiles": "CCOc1cc2nc(C34CC(CO)(C3)C4)cn2cc1NC(=O)c1cccc(C(F)F)n1", "note": "[Example 130, 6-(difluoromethyl)-N-(7-ethoxy-2-(3-(hydroxymethyl)bicyclo[1.1.1]pentan-1-yl)imidazo[1,2-a]pyridin-6-yl)picolinamide]", "values": [{"measurement": "IC50", "setting": "[1]", "value": 0.001, "unit": "µM"}, {"measurement": "IC50", "setting": "[2]", "value": 0.001, "unit": "µM"}]}
{"smiles": "CCOc1cc2nc(C3CC3)cn2cc1NC(=O)c1cccc(N2CCOCC2)n1", "note": "[Example 131, N-(2-cyclopropyl-7-ethoxyimidazo[1,2-a]pyridin-6-yl)-6-morpholinopicolinamide]", "values": [{"measurement": "IC50", "setting": "[1]", "value": 0.044, "unit": "µM"}, {"measurement": "IC50", "setting": "[2]", "value": 0.005, "unit": "µM"}]}
{"smiles": "CCOc1cc2nc(C3CCOCC3)cn2cc1NC(=O)c1cccc(OC)n1", "note": "[Example 133, N-(7-ethoxy-2-(tetrahydro-2H-pyran-4-yl)imidazo[1,2-a]pyridin-6-yl)-6-methoxypicolinamide]", "values": [{"measurement": "IC50", "setting": "[1]", "value": 0.004, "unit": "µM"}, {"measurement": "IC50", "setting": "[2]", "value": 0.002, "unit": "µM"}]}
{"smiles": "CCOc1cc2nc(CC3CCOC3)cn2cc1NC(=O)c1cccc(OC)n1", "note": "(centres unmarked) [Example 134, N-(7-ethoxy-2-((tetrahydrofuran-3-yl)methyl)imidazo[1,2-a]pyridin-6-yl)-6-methoxypicolinamide]", "values": [{"measurement": "IC50", "setting": "[1]", "value": 0.009, "unit": "µM"}, {"measurement": "IC50", "setting": "[2]", "value": 0.002, "unit": "µM"}]}
{"smiles": "CCOc1cc2nc([C@H]3C[C@H](OC(C)C)C3)cn2cc1NC(=O)c1cccc(C(F)F)n1", "note": "[Example 135, 6-(difluoromethyl)-N-(7-ethoxy-2-((1r,3r)-3-isopropoxycyclobutyl)imidazo[1,2-a]pyridin-6-yl)picolinamide]", "values": [{"measurement": "IC50", "setting": "[1]", "value": 0.006, "unit": "µM"}, {"measurement": "IC50", "setting": "[2]", "value": 0.002, "unit": "µM"}]}
{"smiles": "CCOc1cc2nc([C@H]3C[C@@H](OC(C)C)C3)cn2cc1NC(=O)c1cccc(C(F)F)n1", "note": "[Example 136, 6-(difluoromethyl)-N-(7-ethoxy-2-((1s,3s)-3-isopropoxycyclobutyl)imidazo[1,2-a]pyridin-6-yl)picolinamide]", "values": [{"measurement": "IC50", "setting": "[1]", "value": 0.002, "unit": "µM"}, {"measurement": "IC50", "setting": "[2]", "value": 0.001, "unit": "µM"}]}
{"smiles": "CCOc1nc(NC(=O)c2cccc(OC)n2)cn2cc(C3CCOCC3)nc12", "note": "[Example 147, N-(8-ethoxy-2-(tetrahydro-2H-pyran-4-yl)imidazo[1,2-a]pyrazin-6-yl)-6-methoxypicolinamide]", "values": [{"measurement": "IC50", "setting": "[1]", "value": 0.051, "unit": "µM"}, {"measurement": "IC50", "setting": "[2]", "value": 0.011, "unit": "µM"}]}
{"smiles": "CCOc1cc2nc(C(F)(F)CCOC)cn2cc1NC(=O)c1cccc(C(F)F)n1", "note": "[Example 149, N-(2-(1,1-difluoro-3-methoxypropyl)-7-ethoxyimidazo[1,2-a]pyridin-6-yl)-6-(difluoromethyl)picolinamide]", "values": [{"measurement": "IC50", "setting": "[1]", "value": 0.003, "unit": "µM"}, {"measurement": "IC50", "setting": "[2]", "value": 0.002, "unit": "µM"}]}
{"smiles": "CCOc1cc2nc(C3CCSC3)cn2cc1NC(=O)c1cccc(C(F)F)n1", "note": "(centres unmarked) [Example 150, 6-(difluoromethyl)-N-(7-ethoxy-2-(tetrahydrothiophen-3-yl)imidazo[1,2-a]pyridin-6-yl)picolinamide]", "values": [{"measurement": "IC50", "setting": "[1]", "value": 0.002, "unit": "µM"}, {"measurement": "IC50", "setting": "[2]", "value": 0.001, "unit": "µM"}]}
{"smiles": "CCOc1cc2nc(CC3CCOCC3)cn2cc1NC(=O)c1cccc(C(F)F)n1", "note": "[Example 151, 6-(difluoromethyl)-N-(7-ethoxy-2-((tetrahydro-2H-pyran-4-yl)methyl)imidazo[1,2-a]pyridin-6-yl)picolinamide]", "values": [{"measurement": "IC50", "setting": "[1]", "value": 0.002, "unit": "µM"}, {"measurement": "IC50", "setting": "[2]", "value": 0.001, "unit": "µM"}]}
{"smiles": "CCOc1cc2nc(C(C)(C)C#N)cn2cc1NC(=O)c1cccc(C(F)F)n1", "note": "[Example 152, N-(2-(2-cyanopropan-2-yl)-7-ethoxyimidazo[1,2-a]pyridin-6-yl)-6-(difluoromethyl)picolinamide]", "values": [{"measurement": "IC50", "setting": "[1]", "value": 0.004, "unit": "µM"}, {"measurement": "IC50", "setting": "[2]", "value": 0.004, "unit": "µM"}]}
{"smiles": "CCOc1cc2nc(C34CC(OC)(C3)C4)cn2cc1NC(=O)c1cccc(C(F)F)n1", "note": "[Example 153, 6-(difluoromethyl)-N-(7-ethoxy-2-(3-methoxybicyclo[1.1.1]pentan-1-yl)imidazo[1,2-a]pyridin-6-yl)picolinamide]", "values": [{"measurement": "IC50", "setting": "[1]", "value": 0.001, "unit": "µM"}, {"measurement": "IC50", "setting": "[2]", "value": 0.001, "unit": "µM"}]}
